Measured values as given in PMC7764991, “Chronic Plasma Exposure to Kinase Inhibitors in Patients with Oncogene-Addicted Non-Small Cell Lung Cancer” (Cancers, 2020).

Legend:
[1] = Table S2; ref supplementary refs 9-18, per drug; cited from earlier work
[2] = cited from earlier work
[3] = cited from earlier work; for Proposed target for TDM, Cmin: Table S1, plasma trough level, ref supplementary refs 1-11, per drug; for Target value of residual plasma concentration defining 'optimal concentration': recommended for TDM
[4] = Residual plasma concentration of kinase inhibitors by UPLC-MS/MS in NSCLC patients, classed optimal or suboptimal
Method: Patients with advanced NSCLC harboring oncogenic drivers, such as an EGFR-mutation, BRAF^V600E-mutation, ALK-fusion, or ROS1-fusion, treated with KI therapy for at least three months were eligible. […] KI plasma concentrations were evaluated in blood samples collected during therapy, and at the time of clinical response or relapse. Chronic plasma exposure was defined as at least three months of KI therapy. Clinical and pathological data were extracted from electronic medical records. Radiological assessments were performed every 8 or 12 weeks per Response Evaluation Criteria in Solid Tumors (RECIST) v1.1 and per the treating physician’s discretion.
Residual plasma concentrations of drugs were measured in blood samples using ultra-performance liquid chromatography coupled with tandem mass spectrometry validated methods. A residual estimate based on pharmacokinetic and population pharmacokinetic analysis parameters (Table S2) was made for samples not collected at the time of the residual sampling.
Precise measurement of trough concentrations is challenging in routine practice, due to the constraints of the logistics of blood collection at a precise time and the fact that the timing of administration varies from patient to patient. We defined three situations according to the dosing time with respect to the last dose: Optimal, evaluable, and non-interpretable.
• Optimal: The optimal concentration corresponds to the true residual plasma concentration at a steady state, in the blood collection performed immediately before the next administration. • Evaluable: The residual plasma concentration is estimated by an extrapolation method from known pharmacokinetic parameters (distribution volume, half-life, clearance) and from data obtained in population pharmacokinetic models. This estimate of standard trough concentration (Cmin, std) is only possible when blood samples were collected at steady state or during the terminal elimination phase of the drug, since in this phase, the elimination rate is linear. • - C (min, std) = C(t) * 0.5 ^ (Delta (t)/t1/2) • - C (min, std) = C(t) * exp (k(e) x Delta (t))
• 3. Not interpretable: Extrapolation is not feasible for samples taken during the plasma peak period.

[5] = studies of KI concentrations for other cancers; cited from earlier work
[6] = design: method as in PMID 22038662; conditions: hepatocellular carcinoma patients, plasma measured every 15 days; cited from earlier work
[7] = samples after at least three months of KI, % of the optimal group (n = 25)
[8] = samples after at least three months of KI, % of the suboptimal group (n = 26)

Row | Structure (SMILES) | Bioavailability [1] | Distribution volume [1] | Hepatic elimination [1] | Metabolic pathway [1] | Tmax [1] | Interaction with proton pump inhibitors [2] | Proposed target for TDM, Cmin [3] | Target value of residual plasma concentration defining 'optimal concentration' [3] | Samples with optimal concentration [4, 7] | Samples with suboptimal concentration [4, 8] | Half-life [1] | Effect of cigarette smoke on plasmatic exposure ([2]; cigarette smoke induces CYP1A1) | Samples with optimal concentration ([4]; human, in vivo) | Samples with suboptimal concentration ([4]; human, in vivo) | Suboptimal concentration rate [5] | Exposure after three months of treatment compared with one month [6]
1 | C[C@@H](Oc1cc(-c2cnn(C3CCNCC3)c2)cnc1N)c1c(Cl)ccc(F)c1Cl [Crizotinib, crizotinib] | 43% | 1772 L | 63% | CYP3A4 | 4 to 6 h | not relevant | ≥ 235 ng/mL | > 235 ng/mL | 2 (8%) No. (%) | 5 (19.5%) No. (%) | – | – | – | – | – | –
2 | CC(C)(C)c1nc(-c2cccc(NS(=O)(=O)c3c(F)cccc3F)c2F)c(-c2ccnc(N)n2)s1 [Dabrafenib, dabrafenib] | – | 46 L | 73% | CYP2C8, 3A4 | – | not relevant | ≥ 96.1 ng/mL | > 96.1 ng/mL | 2 (8%) No. (%) | 3 (11.5%) No. (%) | 8 h | – | – | – | – | –
3 | C#Cc1cccc(Nc2ncnc3cc(OCCOC)c(OCCOC)cc23)c1 [Erlotinib, erlotinib] | 59% | 232 L | 90% | – | – | decreasing their bioavailability and the plasmatic exposure | ≥ 500 ng/mL | > 500 ng/mL | – | – | 36.2 h | significantly decreases | 7 (28%) No. (%) | 6 (23%) No. (%) | 11% | –
4 | COc1cc2ncnc(Nc3ccc(F)c(Cl)c3)c2cc1OCCCN1CCOCC1 [Gefitinib, gefitinib] | 59% | – | – | – | 3 to 7 h | – | ≥ 200 ng/mL | > 200 ng/mL | – | – | 41 h | – | 8 (32%) No. (%) | 3 (11.5%) No. (%) | – | –
5 | C=CC(=O)Nc1cc(Nc2nccc(-c3cn(C)c4ccccc34)n2)c(OC)cc1N(C)CCN(C)C [Osimertinib, osimertinib] | 70% | – | – | – | 6 h | – | ≥ 166 ng/mL | > 166 ng/mL | – | – | 44 h | – | 4 (16%) No. (%) | 6 (23%) No. (%) | – | –
6 | CC(=O)Nc1cccc(-n2c(=O)n(C3CC3)c(=O)c3c(Nc4ccc(I)cc4F)n(C)c(=O)c(C)c32)c1 [Trametinib, trametinib] | – | – | 80% | Deacetylation | – | not relevant | ≥ 10.6 ng/mL | > 10.6 ng/mL | – | – | 127 h | – | 2 (8%) No. (%) | 3 (11.5%) No. (%) | – | –
7 | CNC(=O)c1cc(Oc2ccc(NC(=O)Nc3ccc(Cl)c(C(F)(F)F)c3)cc2)ccn1 [sorafenib] | – | – | – | – | – | – | – | – | – | – | – | – | – | – | – | lower than after one month of treatment
8 | CCN(CC)CCNC(=O)c1c(C)[nH]c(/C=C2\C(=O)Nc3ccc(F)cc32)c1C [sunitinib] | – | – | – | – | – | – | – | – | – | – | – | – | – | – | 49% | –
